ChEMBL document CHEMBL5653615 (J Biol Chem, 2013)

Assays:
[1] = biological target: T1, Serine/threonine-protein kinase D3 (Homo sapiens) (UniProt O94806); assay: Inhibition of human PRKD3 at 18.6 nM by HotSpot assay relative to control
T1 sequence (whole entry): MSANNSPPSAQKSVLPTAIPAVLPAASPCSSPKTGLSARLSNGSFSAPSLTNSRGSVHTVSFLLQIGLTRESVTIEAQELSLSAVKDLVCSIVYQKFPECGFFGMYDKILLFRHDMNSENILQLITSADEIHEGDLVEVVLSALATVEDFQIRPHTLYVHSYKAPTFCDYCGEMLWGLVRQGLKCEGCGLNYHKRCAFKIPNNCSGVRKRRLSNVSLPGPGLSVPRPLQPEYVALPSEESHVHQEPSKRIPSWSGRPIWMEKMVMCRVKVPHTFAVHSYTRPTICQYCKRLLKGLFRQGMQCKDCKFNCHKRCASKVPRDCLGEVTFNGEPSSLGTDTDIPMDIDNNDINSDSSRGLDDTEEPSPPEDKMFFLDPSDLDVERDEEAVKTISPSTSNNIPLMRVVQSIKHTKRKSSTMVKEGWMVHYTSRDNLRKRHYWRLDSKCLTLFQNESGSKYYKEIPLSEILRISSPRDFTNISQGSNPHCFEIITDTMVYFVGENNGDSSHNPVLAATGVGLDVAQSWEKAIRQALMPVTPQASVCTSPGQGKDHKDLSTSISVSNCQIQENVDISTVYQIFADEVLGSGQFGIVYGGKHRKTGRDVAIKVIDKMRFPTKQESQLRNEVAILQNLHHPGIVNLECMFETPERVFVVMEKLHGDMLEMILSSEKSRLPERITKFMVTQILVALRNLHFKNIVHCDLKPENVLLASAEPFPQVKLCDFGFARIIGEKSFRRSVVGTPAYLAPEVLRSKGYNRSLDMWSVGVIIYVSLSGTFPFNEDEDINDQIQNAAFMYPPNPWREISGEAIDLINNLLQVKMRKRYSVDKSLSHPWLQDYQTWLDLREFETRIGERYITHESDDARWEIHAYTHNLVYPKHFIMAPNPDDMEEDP

[2] = biological target: Tyrosine-protein kinase CSK (Homo sapiens) (UniProt P41240); assay: Inhibition of human CSK at 18.6 nM by HotSpot assay relative to control
Chain of Tyrosine-protein kinase CSK (Homo sapiens) (P41240 2-450 limits assumed): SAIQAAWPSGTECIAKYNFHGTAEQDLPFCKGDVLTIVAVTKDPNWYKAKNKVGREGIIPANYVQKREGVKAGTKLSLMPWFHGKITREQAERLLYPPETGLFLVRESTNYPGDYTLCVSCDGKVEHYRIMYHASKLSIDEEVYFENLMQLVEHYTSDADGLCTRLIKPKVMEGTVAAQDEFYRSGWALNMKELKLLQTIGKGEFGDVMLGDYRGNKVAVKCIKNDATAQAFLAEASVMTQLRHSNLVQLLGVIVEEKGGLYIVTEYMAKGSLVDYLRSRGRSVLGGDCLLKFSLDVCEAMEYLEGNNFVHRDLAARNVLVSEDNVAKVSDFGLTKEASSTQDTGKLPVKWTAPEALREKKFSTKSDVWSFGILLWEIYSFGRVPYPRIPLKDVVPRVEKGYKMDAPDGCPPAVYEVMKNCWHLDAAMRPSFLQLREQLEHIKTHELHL

[3] = biological target: Dual specificity mitogen-activated protein kinase kinase 2 (Homo sapiens) (UniProt P36507); assay: Inhibition of human MEK2 at 18.6 nM by HotSpot assay relative to control
Chain of Dual specificity mitogen-activated protein kinase kinase 2 (Homo sapiens) (P36507 whole entry): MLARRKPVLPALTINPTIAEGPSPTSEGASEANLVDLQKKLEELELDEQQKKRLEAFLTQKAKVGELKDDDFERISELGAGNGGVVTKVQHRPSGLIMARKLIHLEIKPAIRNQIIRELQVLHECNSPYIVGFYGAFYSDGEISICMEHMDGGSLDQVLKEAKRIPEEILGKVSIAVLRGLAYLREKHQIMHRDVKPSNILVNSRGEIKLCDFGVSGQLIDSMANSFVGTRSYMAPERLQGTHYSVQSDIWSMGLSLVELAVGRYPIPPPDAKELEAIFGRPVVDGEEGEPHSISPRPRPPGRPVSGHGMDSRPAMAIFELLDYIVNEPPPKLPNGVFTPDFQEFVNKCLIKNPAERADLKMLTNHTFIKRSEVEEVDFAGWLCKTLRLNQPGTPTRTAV

[4] = biological target: T2, Serine/threonine-protein kinase Nek3 (Homo sapiens) (UniProt P51956); assay: Inhibition of human NEK3 at 18.6 nM by HotSpot assay relative to control
T2 sequence (whole entry): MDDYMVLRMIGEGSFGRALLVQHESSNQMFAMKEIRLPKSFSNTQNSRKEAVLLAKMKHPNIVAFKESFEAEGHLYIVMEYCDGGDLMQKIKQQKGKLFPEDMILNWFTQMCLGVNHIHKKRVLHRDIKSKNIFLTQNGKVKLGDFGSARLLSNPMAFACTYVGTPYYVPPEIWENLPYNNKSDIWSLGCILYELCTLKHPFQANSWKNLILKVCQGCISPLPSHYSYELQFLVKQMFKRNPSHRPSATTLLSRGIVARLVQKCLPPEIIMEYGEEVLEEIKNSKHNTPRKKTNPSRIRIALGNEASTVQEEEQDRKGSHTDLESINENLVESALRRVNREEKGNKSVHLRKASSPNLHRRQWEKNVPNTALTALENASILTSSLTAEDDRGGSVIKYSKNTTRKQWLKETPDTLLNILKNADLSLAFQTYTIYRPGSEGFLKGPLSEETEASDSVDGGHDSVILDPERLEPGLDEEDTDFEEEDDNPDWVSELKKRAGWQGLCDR

[5] = biological target: Mitogen-activated protein kinase kinase kinase kinase 5 (Homo sapiens) (UniProt Q9Y4K4); assay: Inhibition of human KHS at 18.6 nM by HotSpot assay relative to control
Chain of Mitogen-activated protein kinase kinase kinase kinase 5 (Homo sapiens) (Q9Y4K4 whole entry, looked up): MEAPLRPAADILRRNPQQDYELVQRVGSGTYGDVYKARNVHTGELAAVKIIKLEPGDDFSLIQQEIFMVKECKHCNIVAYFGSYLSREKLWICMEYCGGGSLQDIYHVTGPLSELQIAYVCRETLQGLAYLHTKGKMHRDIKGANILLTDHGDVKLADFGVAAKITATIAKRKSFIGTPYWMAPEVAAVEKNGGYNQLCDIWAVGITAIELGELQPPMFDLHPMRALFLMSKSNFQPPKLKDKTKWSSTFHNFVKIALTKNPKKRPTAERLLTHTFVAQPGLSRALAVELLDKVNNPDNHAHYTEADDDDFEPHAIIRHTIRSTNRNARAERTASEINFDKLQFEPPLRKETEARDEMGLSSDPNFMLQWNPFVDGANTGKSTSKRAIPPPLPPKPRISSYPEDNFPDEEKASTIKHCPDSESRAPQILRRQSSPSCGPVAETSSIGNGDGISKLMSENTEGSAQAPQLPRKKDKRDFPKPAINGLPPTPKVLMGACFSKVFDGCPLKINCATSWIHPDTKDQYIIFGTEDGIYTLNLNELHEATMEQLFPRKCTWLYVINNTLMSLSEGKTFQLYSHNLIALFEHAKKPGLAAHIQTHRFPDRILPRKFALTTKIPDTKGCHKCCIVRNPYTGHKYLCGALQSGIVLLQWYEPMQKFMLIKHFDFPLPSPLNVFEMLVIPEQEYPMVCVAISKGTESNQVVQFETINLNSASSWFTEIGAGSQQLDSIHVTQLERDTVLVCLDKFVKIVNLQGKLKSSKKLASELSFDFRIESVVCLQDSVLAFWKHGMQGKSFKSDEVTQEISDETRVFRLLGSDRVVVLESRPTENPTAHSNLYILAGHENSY

[6] = biological target: T3, Mitogen-activated protein kinase kinase kinase 5 (Homo sapiens) (UniProt Q99683); assay: Inhibition of human ASK1 at 1.82 nM by HotSpot assay relative to control
T3 sequence (whole entry): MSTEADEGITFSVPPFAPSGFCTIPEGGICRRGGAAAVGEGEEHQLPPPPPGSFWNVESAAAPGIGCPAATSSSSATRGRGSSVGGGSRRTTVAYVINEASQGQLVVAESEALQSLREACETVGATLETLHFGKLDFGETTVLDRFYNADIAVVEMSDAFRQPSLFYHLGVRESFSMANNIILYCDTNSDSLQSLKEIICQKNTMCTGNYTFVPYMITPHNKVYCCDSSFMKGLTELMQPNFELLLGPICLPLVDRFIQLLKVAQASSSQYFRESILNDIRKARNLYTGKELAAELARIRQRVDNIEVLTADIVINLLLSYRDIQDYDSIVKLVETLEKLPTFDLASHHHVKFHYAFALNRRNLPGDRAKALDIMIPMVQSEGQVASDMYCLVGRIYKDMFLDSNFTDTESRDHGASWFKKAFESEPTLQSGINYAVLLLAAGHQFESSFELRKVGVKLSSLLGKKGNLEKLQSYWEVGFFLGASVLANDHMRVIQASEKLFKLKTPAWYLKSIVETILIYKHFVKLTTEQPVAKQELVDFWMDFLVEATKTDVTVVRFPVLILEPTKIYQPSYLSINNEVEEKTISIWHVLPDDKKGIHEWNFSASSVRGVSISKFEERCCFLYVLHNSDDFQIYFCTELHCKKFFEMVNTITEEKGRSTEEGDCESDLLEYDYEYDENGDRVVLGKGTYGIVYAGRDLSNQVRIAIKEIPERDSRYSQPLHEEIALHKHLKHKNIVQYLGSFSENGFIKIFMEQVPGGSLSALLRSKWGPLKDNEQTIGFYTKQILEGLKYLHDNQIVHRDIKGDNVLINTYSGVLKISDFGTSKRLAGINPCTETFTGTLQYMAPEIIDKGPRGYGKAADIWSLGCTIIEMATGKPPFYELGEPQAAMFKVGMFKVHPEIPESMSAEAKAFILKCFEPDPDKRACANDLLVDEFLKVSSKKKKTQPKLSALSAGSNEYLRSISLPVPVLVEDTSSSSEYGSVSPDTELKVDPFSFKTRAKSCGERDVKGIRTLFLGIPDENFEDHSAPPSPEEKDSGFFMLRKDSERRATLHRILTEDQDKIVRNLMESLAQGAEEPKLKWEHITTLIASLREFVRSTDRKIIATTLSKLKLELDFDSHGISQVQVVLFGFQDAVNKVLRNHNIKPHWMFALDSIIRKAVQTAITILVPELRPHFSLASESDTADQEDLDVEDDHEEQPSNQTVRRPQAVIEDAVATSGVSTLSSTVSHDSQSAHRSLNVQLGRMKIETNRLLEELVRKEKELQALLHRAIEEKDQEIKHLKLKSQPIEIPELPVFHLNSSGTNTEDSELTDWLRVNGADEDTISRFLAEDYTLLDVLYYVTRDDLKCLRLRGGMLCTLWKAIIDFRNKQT

Homo sapiens = organism: Homo sapiens; assay: Inhibition of human CDK2/cyclin A at 1.82 nM by HotSpot assay relative to control

inhibition [1] [%]	inhibition [2] [%]	inhibition [3] [%]	inhibition [4] [%]	inhibition [5] [%]	inhibition [6] [%]	inhibition (Homo sapiens) [%]	Compound
9.14	3.89	-5.1	7.82	12.1	–	–	C[C@]1(O)C[C@@H](c2nc(-c3ccc4ccc(-c5ccccc5)nc4c3)c3c(N)nccn32)C1
–	–	–	–	–	-3.08	0.69	C[C@@]1(C(=O)Nc2ccc(F)nc2)CCCN1c1nc(Nc2cc(C3CC3)n[nH]2)c2cccn2n1
